Measurements published in ChEMBL document CHEMBL3885881, “DrugMatrix”.

Species on record: Rattus norvegicus
Type: toxicity, organism-based, Sprague-Dawley
Details: in vivo, po, route oral GAVAGE, […]; for ALANINE AMINOTRANSFERASE / ALBUMIN / ALKALINE PHOSPHATASE / ASPARTATE AMINOTRANSFERASE / BLOOD UREA NITROGEN / CARBON DIOXIDE / CHOLESTEROL / CREATINE PHOSPHOKINASE / CREATININE / LACTATE DEHYDROGENASE / POTASSIUM / TOTAL BILIRUBIN / TOTAL PROTEIN / PHOSPHORUS / GLUCOSE / LIPASE: tissue Plasma
[1] = 0 mg/kg, 6 h, vehicle control, tissue Blood, dose level Control, time 0.25 day
[2] = 0 mg/kg, 6 h, vehicle control, dose level Control, time 0.25 day
[3] = 0 mg/kg, 24 h, vehicle control, tissue Blood, dose level Control, time 1 day
[4] = 0 mg/kg, 24 h, vehicle control, dose level Control, time 1 day
[5] = 100 mg/kg, 6 h, tissue Blood, dose level M1, time 0.25 day
[6] = 100 mg/kg, 6 h, dose level M1, time 0.25 day
[7] = 100 mg/kg, 24 h, tissue Blood, dose level M1, time 1 day
[8] = 100 mg/kg, 24 h, dose level M1, time 1 day
[9] = 860 mg/kg, 6 h, tissue Blood, dose level High, time 0.25 day
[10] = 860 mg/kg, 6 h, dose level High, time 0.25 day
[11] = 860 mg/kg, 24 h, tissue Blood, dose level High, time 1 day
[12] = 860 mg/kg, 24 h, dose level High, time 1 day

Description: DrugMatrix - Regimen: Single

CC(C)OC(=O)C(C)(C)Oc1ccc(C(=O)c2ccc(Cl)cc2)cc1 [FENOFIBRATE]
ABSOLUTE EOSINOPHIL [1]: 0 CELLS/uL
ABSOLUTE LYMPHOCYTE [1]: 8631 CELLS/uL
ABSOLUTE MONOCYTE [1]: 171.17 CELLS/uL
ABSOLUTE SEGMENTED NEUTROPHIL [1]: 1214.5 CELLS/uL
BASOPHIL [1]: 0%
EOSINOPHIL [1]: 0%
ERYTHROCYTE COUNT [1]: 5.42 x10E6/uL
HEMATOCRIT [1]: 34.7%
HEMOGLOBIN [1]: 13.67 G/DL
LYMPHOCYTE [1]: 86.17%
MEAN CORPUSCULAR HEMOGLOBIN CONCENTRATION [1]: 39.42 G/DL
MEAN CORPUSCULAR VOLUME [1]: 64.12 fL
NEUTROPHIL [1]: 12.17%
NUCLEATED RED BLOOD CELLS [1]: 0 /100WBC
ALANINE AMINOTRANSFERASE [2]: 61 u/L
ALBUMIN [2]: 4.67 G/DL
ALKALINE PHOSPHATASE [2]: 312.5 u/L
ASPARTATE AMINOTRANSFERASE [2]: 117.5 u/L
BLOOD UREA NITROGEN [2]: 8.67 mg/dL
CARBON DIOXIDE [2]: 26.33 mmol/L
CHOLESTEROL [2]: 72 mg/dL
CREATINE PHOSPHOKINASE [2]: 283.33 u/L
CREATININE [2]: 0.28 mg/dL
LACTATE DEHYDROGENASE [2]: 95.33 u/L
POTASSIUM [2]: 5.75 MEQ/L
TOTAL BILIRUBIN [2]: 0.3 mg/dL
TOTAL PROTEIN [2]: 5.43 G/DL
ABSOLUTE EOSINOPHIL [3]: 90.83 CELLS/uL
ABSOLUTE LYMPHOCYTE [3]: 14725.17 CELLS/uL
ABSOLUTE MONOCYTE [3]: 220 CELLS/uL
ABSOLUTE SEGMENTED NEUTROPHIL [3]: 1080.67 CELLS/uL
BASOPHIL [3]: 0%
EOSINOPHIL [3]: 0.67%
ERYTHROCYTE COUNT [3]: 5.3 x10E6/uL
HEMATOCRIT [3]: 33.4%
HEMOGLOBIN [3]: 13.4 G/DL
LYMPHOCYTE [3]: 91.17%
MEAN CORPUSCULAR HEMOGLOBIN CONCENTRATION [3]: 40.12 G/DL
MEAN CORPUSCULAR VOLUME [3]: 63.05 fL
NEUTROPHIL [3]: 6.67%
NUCLEATED RED BLOOD CELLS [3]: 0 /100WBC
ALANINE AMINOTRANSFERASE [4]: 69 u/L
ALBUMIN [4]: 4.33 G/DL
ALKALINE PHOSPHATASE [4]: 269 u/L
ASPARTATE AMINOTRANSFERASE [4]: 83.67 u/L
BLOOD UREA NITROGEN [4]: 14 mg/dL
CARBON DIOXIDE [4]: 29 mmol/L
CHOLESTEROL [4]: 66.67 mg/dL
CREATINE PHOSPHOKINASE [4]: 355 u/L
CREATININE [4]: 0.18 mg/dL
LACTATE DEHYDROGENASE [4]: 123.33 u/L
PHOSPHORUS [4]: 8.83 mg/dL
POTASSIUM [4]: 6.06 MEQ/L
TOTAL BILIRUBIN [4]: 0.2 mg/dL
TOTAL PROTEIN [4]: 5.72 G/DL
ABSOLUTE EOSINOPHIL [5]: 0 CELLS/uL
ABSOLUTE LYMPHOCYTE [5]: 15645.5 CELLS/uL
ABSOLUTE MONOCYTE [5]: 363.5 CELLS/uL
ABSOLUTE SEGMENTED NEUTROPHIL [5]: 1824.33 CELLS/uL
BASOPHIL [5]: 0%
EOSINOPHIL [5]: 0%
ERYTHROCYTE COUNT [5]: 5.47 x10E6/uL
HEMATOCRIT [5]: 34.7%
HEMOGLOBIN [5]: 13.57 G/DL
LYMPHOCYTE [5]: 88%
MEAN CORPUSCULAR HEMOGLOBIN CONCENTRATION [5]: 39.12 G/DL
MEAN CORPUSCULAR VOLUME [5]: 63.42 fL
NUCLEATED RED BLOOD CELLS [5]: 0 /100WBC
ALANINE AMINOTRANSFERASE [6]: 47.67 u/L
ALBUMIN [6]: 4.43 G/DL
ALKALINE PHOSPHATASE [6]: 355.83 u/L
ASPARTATE AMINOTRANSFERASE [6]: 100.33 u/L
BLOOD UREA NITROGEN [6]: 8.17 mg/dL
CARBON DIOXIDE [6]: 21.33 mmol/L
CHOLESTEROL [6]: 77.33 mg/dL
CREATINE PHOSPHOKINASE [6]: 740.17 u/L
CREATININE [6]: 0.18 mg/dL
LACTATE DEHYDROGENASE [6]: 327.83 u/L
PHOSPHORUS [6]: 12.3 mg/dL
TOTAL BILIRUBIN [6]: 0.22 mg/dL
TOTAL PROTEIN [6]: 5.92 G/DL
ABSOLUTE EOSINOPHIL [7]: 24.83 CELLS/uL
ABSOLUTE LYMPHOCYTE [7]: 12569.67 CELLS/uL
ABSOLUTE MONOCYTE [7]: 401.83 CELLS/uL
ABSOLUTE SEGMENTED NEUTROPHIL [7]: 920.33 CELLS/uL
BASOPHIL [7]: 0%
EOSINOPHIL [7]: 0.17%
ERYTHROCYTE COUNT [7]: 4.96 x10E6/uL
HEMATOCRIT [7]: 32.78%
HEMOGLOBIN [7]: 13.08 G/DL
LYMPHOCYTE [7]: 90.5%
MEAN CORPUSCULAR HEMOGLOBIN [7]: 26.38 pg
MEAN CORPUSCULAR HEMOGLOBIN CONCENTRATION [7]: 39.95 G/DL
MEAN CORPUSCULAR VOLUME [7]: 66.03 fL
NEUTROPHIL [7]: 6.67%
NUCLEATED RED BLOOD CELLS [7]: 0.33 /100WBC
ALANINE AMINOTRANSFERASE [8]: 74.83 u/L
ALBUMIN [8]: 4.45 G/DL
ALKALINE PHOSPHATASE [8]: 321.17 u/L
ASPARTATE AMINOTRANSFERASE [8]: 86.17 u/L
BLOOD UREA NITROGEN [8]: 13 mg/dL
CARBON DIOXIDE [8]: 30.83 mmol/L
CHOLESTEROL [8]: 42.83 mg/dL
CREATINE PHOSPHOKINASE [8]: 282.83 u/L
CREATININE [8]: 0.19 mg/dL
GLUCOSE [8]: 147.17 mg/dL
LIPASE [8]: 9.17 u/L
TOTAL BILIRUBIN [8]: 0.15 mg/dL
TOTAL PROTEIN [8]: 5.55 G/DL
ABSOLUTE EOSINOPHIL [9]: 0 CELLS/uL
ABSOLUTE LYMPHOCYTE [9]: 9866.33 CELLS/uL
ABSOLUTE MONOCYTE [9]: 201 CELLS/uL
ABSOLUTE SEGMENTED NEUTROPHIL [9]: 1482.67 CELLS/uL
BASOPHIL [9]: 0%
EOSINOPHIL [9]: 0%
ERYTHROCYTE COUNT [9]: 5.53 x10E6/uL
HEMATOCRIT [9]: 35.82%
HEMOGLOBIN [9]: 14.02 G/DL
LYMPHOCYTE [9]: 85%
MEAN CORPUSCULAR HEMOGLOBIN CONCENTRATION [9]: 39.15 G/DL
MEAN CORPUSCULAR VOLUME [9]: 64.97 fL
NEUTROPHIL [9]: 13.17%
NUCLEATED RED BLOOD CELLS [9]: 0 /100WBC
ALANINE AMINOTRANSFERASE [10]: 53.5 u/L
ALBUMIN [10]: 4.48 G/DL
ALKALINE PHOSPHATASE [10]: 282.5 u/L
ASPARTATE AMINOTRANSFERASE [10]: 93.33 u/L
BLOOD UREA NITROGEN [10]: 9 mg/dL
CARBON DIOXIDE [10]: 26 mmol/L
CHOLESTEROL [10]: 64 mg/dL
CREATINE PHOSPHOKINASE [10]: 406.33 u/L
CREATININE [10]: 0.16 mg/dL
LACTATE DEHYDROGENASE [10]: 198.83 u/L
TOTAL BILIRUBIN [10]: 0.2 mg/dL
TOTAL PROTEIN [10]: 6.02 G/DL
ABSOLUTE EOSINOPHIL [11]: 43 CELLS/uL
ABSOLUTE LYMPHOCYTE [11]: 12968.67 CELLS/uL
ABSOLUTE MONOCYTE [11]: 388.33 CELLS/uL
ABSOLUTE SEGMENTED NEUTROPHIL [11]: 1900 CELLS/uL
BASOPHIL [11]: 0%
EOSINOPHIL [11]: 0.33%
ERYTHROCYTE COUNT [11]: 5.77 x10E6/uL
HEMATOCRIT [11]: 35.63%
HEMOGLOBIN [11]: 14.08 G/DL
LYMPHOCYTE [11]: 85.17%
MEAN CORPUSCULAR HEMOGLOBIN CONCENTRATION [11]: 39.53 G/DL
MEAN CORPUSCULAR VOLUME [11]: 61.83 fL
NEUTROPHIL [11]: 12%
NUCLEATED RED BLOOD CELLS [11]: 0 /100WBC
ALANINE AMINOTRANSFERASE [12]: 115.33 u/L
ALBUMIN [12]: 4.42 G/DL
ALKALINE PHOSPHATASE [12]: 359 u/L
ASPARTATE AMINOTRANSFERASE [12]: 123.33 u/L
BLOOD UREA NITROGEN [12]: 10.33 mg/dL
CARBON DIOXIDE [12]: 27.83 mmol/L
CHOLESTEROL [12]: 51.5 mg/dL
CREATINE PHOSPHOKINASE [12]: 497 u/L
CREATININE [12]: 0.24 mg/dL
GLUCOSE [12]: 134.17 mg/dL
LACTATE DEHYDROGENASE [12]: 204.83 u/L
LIPASE [12]: 9 u/L
POTASSIUM [12]: 5.95 MEQ/L
TOTAL BILIRUBIN [12]: 0.22 mg/dL
TOTAL PROTEIN [12]: 5.72 G/DL
